This note sets out measurements from patent US9440982B2 (Eolas Therapeutics, Inc., priority 2012, dated 2016).

One may read the inhibition as the relative decrease from the control value, in per cent. Low readings indicate a response near the control, high ones a response far below the control.

Structures are written as SMILES.

For the data set, the target named is T1, CYP3A4 (Homo sapiens, UniProt P08684).
T1 construct: pre-incubated with human liver microsomes and NADPH; from tissue; host or cells: human liver microsomes
T1 sequence (P08684 whole entry): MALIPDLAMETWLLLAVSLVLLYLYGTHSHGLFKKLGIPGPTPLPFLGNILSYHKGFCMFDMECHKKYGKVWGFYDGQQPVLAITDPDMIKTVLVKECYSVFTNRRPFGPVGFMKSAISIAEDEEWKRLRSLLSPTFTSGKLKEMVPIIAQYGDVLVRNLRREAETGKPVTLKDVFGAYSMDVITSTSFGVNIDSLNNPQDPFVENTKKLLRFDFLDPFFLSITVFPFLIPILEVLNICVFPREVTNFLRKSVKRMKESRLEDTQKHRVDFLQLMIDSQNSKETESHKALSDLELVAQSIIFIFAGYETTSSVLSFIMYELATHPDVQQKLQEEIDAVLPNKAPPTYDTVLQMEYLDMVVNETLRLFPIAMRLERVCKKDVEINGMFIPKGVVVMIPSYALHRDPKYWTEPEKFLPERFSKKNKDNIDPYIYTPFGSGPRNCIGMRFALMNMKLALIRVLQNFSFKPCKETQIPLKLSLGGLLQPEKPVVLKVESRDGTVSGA
As to the kind of experiment: Cytochrome P450 inhibition assay (midazolam hydroxylation). Format: in vitro ADME. To be noted: human, human liver microsomes, probe midazolam (hydroxylation to 1′-hydroxymidazolam), 10 μM test compound, midazolam at approximately its Km. A digest of the protocol: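 Percent inhibition of midazolam 1′-hydroxylation by 10 μM compound was measured, midazolam dosed at about Km. Time-dependent inhibition was probed by a 30 min preincubation of compound with human liver microsomes and NADPH ahead of substrate, compared against samples without preincubation.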
On the technique in general: Liver microsomes are vesicles of endoplasmic reticulum, rich in cytochrome P450 enzymes.
`Cc1ccc(-c2cccnc2)c(C(=O)N2CCC[C@@H](C)[C@H]2CNc2nc3cc(Cl)ccc3o2)c1` [Example A31, ((2S,3R)-2-(((5-Chlorobenzo[d]oxazol-2-yl)amino)methyl)-3-methylpiperidin-1-yl)(5-methyl-2-(pyridin-3-yl)phenyl)methanone] had an inhibition at 10 µM of 98%.

`Cc1ccc(-n2cc(C)nn2)c(C(=O)N2CCC[C@@H](C)[C@H]2CNc2ccc(C(F)(F)F)cn2)c1` [Example A113, ((2S,3R)-3-Methyl-2-(((5-(trifluoromethyl)pyridin-2-yl)amino)methyl)piperidin-1-yl)(5-methyl-2-(4-methyl-1H-1,2,3-triazol-1-yl)phenyl)methanone] returned an inhibition at 10 µM of 98%.

Turning to `C[C@@H]1CCCN(C(=O)c2cc(F)ccc2-n2nccn2)[C@@H]1CNc1ncc(C(F)(F)F)cn1` [Example A207, (5-Fluoro-2-(2H-1,2,3-triazol-2-yl)phenyl)((2S,3R)-3-methyl-2-(((5-(trifluoromethyl)pyrimidin-2-yl)amino)methyl)piperidin-1-yl)methanone], at 10 µM the inhibition was 44%.

`Cc1ccc(-c2cnn(C)c2)c(C(=O)N2CCC[C@@H](C)[C@H]2CNc2ncc(Cl)cc2F)c1` [Example A97, ((2S,3R)-2-(((5-Chloro-3-fluoropyridin-2-yl)amino)methyl)-3-methylpiperidin-1-yl)(5-methyl-2-(1-methyl-1H-pyrazol-4-yl)phenyl)methanone] had an inhibition at 10 µM of 98%.

Consider `Cc1ccc(-n2nccn2)c(C(=O)N2CCC[C@@H](C)[C@H]2CNc2ncc(F)cc2F)c1` [Example A172, ((2S,3R)-2-(((3,5-Difluoropyridin-2-yl)amino)methyl)-3-methylpiperidin-1-yl)(5-methyl-2-(2H-1,2,3-triazol-2-yl)phenyl)methanone], for which the inhibition at 10 µM came to 76%.

Regarding `COc1ncc(-c2ccc(C)cc2C(=O)N2CCC[C@@H](C)[C@H]2CNc2ccc(C(F)(F)F)cn2)cn1` [Example A4, (2-(2-Methoxypyrimidin-5-yl)-5-methylphenyl)((2S,3R)-3-methyl-2-(((5-(trifluoromethyl)pyridin-2-yl)amino)methyl)piperidin-1-yl)methanone], testing at 10 µM gave an inhibition of 96%.

In turn, `Cc1ccc(-c2cncs2)c(C(=O)N2CCC[C@@H](C)[C@H]2CNc2ccc(C(F)(F)F)cn2)c1` [Example A25, ((2S,3R)-3-Methyl-2-(((5-(trifluoromethyl)pyridin-2-yl)amino)methyl)piperidin-1-yl)(5-methyl-2-(thiazol-5-yl)phenyl)methanone] came in with an inhibition at 10 µM of 99%.

The compound `Cc1ccc(-n2nccn2)c(C(=O)N2CCC(F)(F)C[C@H]2CNc2ncc(C(F)(F)F)cn2)c1` [Example A211, (S)-(4,4-Difluoro-2-(((5-(trifluoromethyl)pyrimidin-2-yl)amino)methyl)piperidin-1-yl)(5-methyl-2-(2H-1,2,3-triazol-2-yl)phenyl)methanone] gave an inhibition at 10 µM of 60%.

As to `Cc1cccc(C(=O)N2CCC[C@@H](C)[C@H]2CNc2ccc(C(F)(F)F)cn2)c1-n1nccn1` [Example A266, ((2S,3R)-3-Methyl-2-(((5-(trifluoromethyl)pyridin-2-yl)amino)methyl)piperidin-1-yl)(3-methyl-2-(2H-1,2,3-triazol-2-yl)phenyl)methanone], the inhibition at 10 µM was found to be 76%.

`Cc1ccc(-c2cncn2C)c(C(=O)N2CCC[C@@H](C)[C@H]2CNc2ccc(C(F)(F)F)cn2)c1` [Example A26, ((2S,3R)-3-Methyl-2-(((5-(trifluoromethyl)pyridin-2-yl)amino)methyl)piperidin-1-yl)(5-methyl-2-(1-methyl-1H-imidazol-5-yl)phenyl)methanone] registered an inhibition at 10 µM of 99%.

On to `Cc1ccc(-n2nccn2)c(C(=O)N2CCC[C@@H](C)[C@H]2CNc2cccc(C#N)n2)c1` [Example A81, 6-((((2S,3R)-3-Methyl-1-(5-methyl-2-(2H-1,2,3-triazol-2-yl)benzoyl)piperidin-2-yl)methyl)amino)picolinonitrile], for which 10 µM produced 67% inhibition.

In the case of `COc1ccc(NC[C@@H]2[C@H](C)CCCN2C(=O)c2cc(C)ccc2-n2nccn2)nc1` [Example A126, ((2S,3R)-2-(((5-Methoxypyridin-2-yl)amino)methyl)-3-methylpiperidin-1-yl)(5-methyl-2-(2H-1,2,3-triazol-2-yl)phenyl)methanone], the inhibition at 10 µM came out at 56%.

Regarding `Cc1ccc(-n2ccc(C)n2)c(C(=O)N2CCC[C@@H](C)[C@H]2CNc2ncc(C#N)cn2)c1` [Example A131, 2-((((2S,3R)-3-Methyl-1-(5-methyl-2-(3-methyl-1H-pyrazol-1-yl)benzoyl)piperidin-2-yl)methyl)amino)pyrimidine-5-carbonitrile], the inhibition at 10 µM worked out at 84%.

On to `Cc1ccc(-n2nccn2)c(C(=O)N2CCC[C@@H](C)[C@H]2CNc2nnc(C(F)(F)F)s2)c1` [Example A102, ((2S,3R)-3-Methyl-2-(((5-(trifluoromethyl)-1,3,4-thiadiazol-2-yl)amino)methyl)piperidin-1-yl)(5-methyl-2-(2H-1,2,3-triazol-2-yl)phenyl)methanone], for which the inhibition at 10 µM was 48%.

The compound `Cc1ccc(-c2cccc(C)n2)c(C(=O)N2CCC[C@@H](C)[C@H]2CNc2ccc(C(F)(F)F)cn2)c1` [Example A104, ((2S,3R)-3-Methyl-2-(((5-(trifluoromethyl)pyridin-2-yl)amino)methyl)piperidin-1-yl)(5-methyl-2-(6-methylpyridin-2-yl)phenyl)methanone] registered an inhibition at 10 µM of 91%.

With `Cc1ccc(-n2nccn2)c(C(=O)N2CCC[C@@H](C)[C@H]2CNc2nccc(C(F)(F)F)n2)c1` [Example A163, ((2S,3R)-3-Methyl-2-(((4-(trifluoromethyl)pyrimidin-2-yl)amino)methyl)piperidin-1-yl)(5-methyl-2-(2H-1,2,3-triazol-2-yl)phenyl)methanone], the inhibition at 10 µM worked out at 90%.

As for `Cc1ccc(-c2ccc(C)cc2C(=O)N2CCC[C@@H](C)[C@H]2CNc2ccc(C(F)(F)F)cn2)nc1` [Example A118, ((2S,3R)-3-Methyl-2-(((5-(trifluoromethyl)pyridin-2-yl)amino)methyl)piperidin-1-yl)(5-methyl-2-(5-methylpyridin-2-yl)phenyl)methanone], the inhibition at 10 µM was determined as 95%.

Compound `Cc1ccc(-n2nccn2)c(C(=O)N2CCC[C@@H](C)[C@H]2CNc2cc(C)nc3nc(C)nn23)c1` [Example A213, ((2S,3R)-2-(((2,5-Dimethyl-[1,2,4]triazolo[1,5-a]pyrimidin-7-yl)amino)methyl)-3-methylpiperidin-1-yl)(5-methyl-2-(2H-1,2,3-triazol-2-yl)phenyl)methanone] had an inhibition at 10 µM of 19%.

Take `Cc1ccc(-n2nccn2)c(C(=O)N2CCC[C@@H](C)[C@H]2CNc2ncc3ccccc3n2)c1` [Example A216, ((2S,3R)-3-Methyl-2-((quinazolin-2-ylamino)methyl)piperidin-1-yl)(5-methyl-2-(2H-1,2,3-triazol-2-yl)phenyl)methanone]: the inhibition at 10 µM came out at 67%.

In the case of `Cc1ccc(-n2nccn2)c(C(=O)N2CCC[C@@H](C)[C@H]2CNc2ccc(Cl)cn2)n1` [Example A178, ((2S,3R)-2-(((5-Chloropyridin-2-yl)amino)methyl)-3-methylpiperidin-1-yl)(6-methyl-3-(2H-1,2,3-triazol-2-yl)pyridin-2-yl)methanone], the inhibition at 10 µM was 64%.

For `Cc1ccc(-n2nccn2)c(C(=O)N2CCC[C@@H](C)[C@H]2CNc2ncc(C#N)cc2F)n1` [Example A193, 5-Fluoro-6-((((2S,3R)-3-methyl-1-(6-methyl-3-(2H-1,2,3-triazol-2-yl)picolinoyl)piperidin-2-yl)methyl)amino)nicotinonitrile], the inhibition at 10 µM came out at 45%.

Regarding `Cc1ccc(-n2nccn2)c(C(=O)N2CCC[C@@H](C)[C@H]2CNc2ncc(Cl)cn2)c1` [Example A147, ((2S,3R)-2-(((5-Chloropyrimidin-2-yl)amino)methyl)-3-methylpiperidin-1-yl)(5-methyl-2-(2H-1,2,3-triazol-2-yl)phenyl)methanone], the inhibition at 10 µM is 66%.

`Cc1ccc(-c2ccnc(C)n2)c(C(=O)N2CCC[C@@H](C)[C@H]2CNc2nc3cc(Cl)ccc3o2)c1` [Example A27, ((2S,3R)-2-(((5-Chlorobenzo[d]oxazol-2-yl)amino)methyl)-3-methylpiperidin-1-yl)(5-methyl-2-(2-methylpyrimidin-4-yl)phenyl)methanone] yielded an inhibition at 10 µM of 95%.

Compound `C[C@@H]1CCCN(C(=O)c2cccc(F)c2-n2nccn2)[C@@H]1CNc1ncc(C(F)(F)F)cn1` [Example A256, (3-Fluoro-2-(2H-1,2,3-triazol-2-yl)phenyl)((2S,3R)-3-methyl-2-(((5-(trifluoromethyl)pyrimidin-2-yl)amino)methyl)piperidin-1-yl)methanone] yielded an inhibition at 10 µM of 52%.

Regarding `C[C@@H]1CCCN(C(=O)c2cc(F)ccc2-c2ncccn2)[C@@H]1CNc1ncc(Cl)cn1` [Example A226, ((2S,3R)-2-(((5-Chloropyrimidin-2-yl)amino)methyl)-3-methylpiperidin-1-yl)(5-fluoro-2-(pyrimidin-2-yl)phenyl) methanone], 10 µM produced 60% inhibition.
